Assay results taken from patent publication US10092620B2, “Uses of cyclic peptides for treating and preventing atherosclerosis” (THE SCRIPPS RESEARCH INSTITUTE, priority 2013, dated 2018).
Entries after “also recorded” stand apart in the source; their conditions may differ. Non-standard residues stand in square brackets, D forms with d. dNMeW = CN[C@H](Cc1c[nH]c2ccccc12)C(=O)O; dNMeE = CN[C@H](CCC(=O)O)C(=O)O

Experiments:
[1] = system: HDL in human plasma; assay: pre-beta HDL ELISA assay: remodeling HDL in human plasma in vitro; assay type: biochemical
Description: First, various cyclic peptides, including the majority of compounds shown in FIG. 2, were assessed for activities for remodeling HDL in human plasma in vitro. Unlike western blot which was used to generate data shown in FIG. 2, here a pre-beta HDL ELISA assay was used to measure pre-beta HDL levels. Results from the assay are shown in Table 1, which lists the peptides in the order of their activities in remodeling HDL.

[2] = system: LDLr-null mice; assay: in vivo efficacy study: plasma total cholesterol in high-fat-fed LDLr-null mice; set-up: species or system mouse; settings: oral 35 mg/kg in drinking water, two weeks, female LDLr-null mice, high-fat diet; FIG. 7
Description: Encouraged by the above findings, we carried out a 2-week pilot study to determine the effect of 1 on plasma total cholesterol levels. As an animal model, we employed the LDLr-null mouse, which has a human-like lipoprotein profile and is a leading animal model for studying hypercholesterolemia and atherogenesis. Considering that the abiotic nature of cyclic D,L-α-peptides renders them highly resistant to proteolysis, we chose to conduct this pilot in vivo efficacy study via the more convenient oral route of administration. Thus, the cyclic D,L-α-peptide was administered orally in the drinking water for two weeks (each mouse drank ˜0.5 mg peptide per day, or ˜25 mg/kg/day) to mice maintained on a high-fat diet.
(§1) In vivo efficacy study: LDL receptor-null (LDLr^−/−) mice on a C57BL/6J background were initially purchased from Jackson Laboratories (Bar Harbor, Me.) and were bred in house. The mice were weaned at 4 weeks of age and were fed ad libitum a standard chow diet (Harlan Teklad 7019) until they were 10-weeks old, when they were switched to a high-fat Western diet (WD) containing 15.8% (wt/wt) fat, 1.25% (wt/wt) cholesterol, and no cholate (Harlan Teklad 94059). At the time that the WD was started, the test cyclic peptide was added to the drinking water at a high dose of 180 μM (200 μg/mL) or a low dose of 18 μM (20 μg/mL) and the mice (female, n=8 per dosing group) were continued on WD for 10 weeks. The lyophilized peptide was easily dissolved in PBS (pH 7.4) containing 1% sucrose, resulting in a clear solution. The drinking water solution was replaced with fresh solution every day. A control group of eight mice (female, n=8) were fed WD with vehicle (PBS with 1% sucrose) drinking water. The mice consumed approximately 2.5 mL of water per day per mouse, and there was no significant difference in water or food consumption between groups.
Effect of cyclic peptides on plasma total cholesterol: The mice were bled after two weeks of treatment and at the time of harvest (10 weeks). The blood (200 μL) was collected after an overnight fast (14-16 h) by retro-orbital puncture into a heparinized capillary tube at two weeks, or by cardiac puncture into EDTA anti-coagulant coated tubes at the time of harvest (10 weeks). Plasma was separated from whole blood immediately by centrifugation of the blood samples at 5000 rpm for 10 min at 4° C., and was then stored at −80° C. Plasma total cholesterol (TC) was measured using an enzymatic colorimetric method kit (Amplex® red cholesterol assay kit, No. A12216, Life Technologies) according to the manufacturer's instructions.
In addition, several peptides were administered orally to mice at a 35 mg/kg dose (unless otherwise noted) in the drinking water for two weeks. The female LDLr-null mice maintained on a high-fat diet were provided with peptide-treated 1% sucrose/PBS or 1% sucrose/PBS alone as the drinking water ad libitum. Cholesterol levels were then determined. The data are shown in FIG. 7 as a scatter plot along with mean±SD. p values were determined by the one-way ANOVA test with a post hoc Tukey-Kramer test.

[3] = system: LDLr-null mice; assay: evaluation of atherosclerosis: whole aorta lesion area and aortic sinus lesion volume; assay type: in vivo, mouse; settings: oral 35 mg/kg in drinking water, 10 weeks, female LDLr-null mice; FIG. 8; 35 mg/kg
Description: as §1
Evaluation of atherosclerosis: Atherosclerotic lesion severity was assessed in the aortae as previously described in Mullick et al., J. Clin. Invest. 115, 3149-3156, 2005. Briefly, at euthanasia, animals were perfused with PBS, followed by 4% formaldehyde (10% UltraPure EM Grade from Polysciences diluted in PBS, pH 7.2). For en face analysis, the entire mouse aorta was dissected from the proximal ascending aorta to the bifurcation of the iliac artery by using a dissecting microscope. Adventitial fat was removed, and the aorta was opened longitudinally, pinned flat onto black dissecting wax, stained with Sudan IV, and photographed at a fixed magnification. The photographs were digitized, and total aortic areas and lesion areas were calculated by using Adobe Photoshop version CS4, Chromatica V, and NIH Scion Image software (http://rsb.info.nih.gov/nih-image/Default.html). The results were reported as a percentage of the total aortic area that contained lesions.
As a second assessment of atherosclerosis, lesions of the aortic root (heart sinus) were analyzed. Utilizing stereological principles, lesion volume was estimated across a fixed distance of the aortic sinus. […] Lesion areas found only within the valve cusp were measured. […] Lesion volume was calculated from an integration of the measured cross-sectional areas. […]
Other than their in vivo cholesterol reducing activities, several peptides were also examined for ability to inhibit development of atherosclerotic legions in vivo. […] All charts in the figure are shown as a scatter plot along with mean±SD. p values were determined by the one-way ANOVA test with a post hoc Tukey-Kramer test.

[4] = system: plasma HDL; assay: in vivo plasma HDL remodeling after intraperitoneal injection (Western blotting for mouse apoA-I); settings: male mice (n=3), i.p. 18-24 mg/kg; FIG. 9
Description: To ascertain if the cyclic D,L-α-peptides function in vivo as modulators of HDL, we administered 1 to mice (BALB/c, n=3) via intraperitoneal injection (i.p.) at a dose of 20 mg/kg. After various times, blood was drawn and the plasma was analyzed by Western blotting to determine the levels of the HDL subpopulations.
In vivo plasma remodeling: Cyclic peptide c[wLwReQeR], 1, was dissolved in 10% sucrose, and sterile filtered through a 0.22-μm syringe filter before injection. Mice were fasted beginning 12 h before dosing, and continued the fast until after the 8-h time point blood draw was completed. Groups of three mice received a 20 mg/kg dose of the cyclic peptide via intraperitoneal injection (0.3 mL). Blood was drawn (30-60 μL) from the retro-orbital sinus into a heparinized capillary tube before dosing (0 min) and at different intervals from 30 min to 8 h after dosing. Plasma was isolated immediately from the whole blood by centrifugation at 5000 rpm for 10 min at 4° C., after which 10 μL of plasma were mixed with 90 μL of 50% sucrose, vortexed for 30 s, and stored at 4° C. until all time points had been collected (samples were stored from 0-8 h). Samples were then mixed with 20 μL of 6× native loading buffer (125 mM tris, pH 6.8, 0.02% bromophenol, 20% glycerol). 6 μL of these samples were loaded onto a 4-20% polyacrylamide gel. Gels were run at constant 80 V at 4° C. for 14 h using a Laemli buffer system (25 mM tris, 192 mM glycine, pH 8.3). Gels were then blotted onto nitrocellulose membranes (0.45 μm, Bio-Rad) at constant 30 V at 4° C. for 2 h using the Laemli buffer (no methanol). The membrane was blocked with 5% non-fat dry milk (NFDM) in TBST (20 mM tris, 150 mM NaCl, pH 7.6, 0.1% Tween-20) for 1 h at 23° C., and then washed once for 10 min with TBST. […]
In vivo plasma HDL remodeling activities of some of the peptides were also analyzed. […] Results shown in the figure were determined by Western blotting for mouse apoA-I.

## c[(Me)wLwR(Me)eQeR] (cyclo([dNMeW]L[dW]R[dNMeE]Q[dE]R)) [SEQ ID NO:46]
[1]
  activity in generating pre-beta HDL (in words): negatively affect
[2]
  plasma cholesterol levels (in words): negatively affect
[3]
  development of atherosclerotic lesions: whole aorta lesion areas and aortic sinus lesion volumes (in words): remains very effective as the parent compound; also recorded: similarly effective as the parent compound in preventing the development of atherosclerotic lesions

## 53 (cyclo([dW]L[dW]K[dH]S[dH]K); SMILES CC(C)C[C@@H]1NC(=O)[C@@H](Cc2c[nH]c3ccccc23)NC(=O)[C@H](CCCCN)NC(=O)[C@@H](Cc2c[nH]cn2)NC(=O)[C@H](CO)NC(=O)[C@@H](Cc2c[nH]cn2)NC(=O)[C@H](CCCCN)NC(=O)[C@@H](Cc2c[nH]c3ccccc23)NC1=O) [compound 53]
[1]; pre-beta HDL ELISA
  Pre-beta HDL generated (normalized level): 0.79
[4]
  in vivo plasma HDL remodeling, level of lipid-poor pre-beta particles: able to remodel plasma HDL to increase the level of lipid-poor pre-beta particles

## 82 (cyclo(WIW[dW]K[dH]K[dH]); SMILES CC[C@H](C)[C@@H]1NC(=O)[C@H](Cc2c[nH]c3ccccc23)NC(=O)[C@@H](Cc2c[nH]cn2)NC(=O)[C@H](CCCCN)NC(=O)[C@@H](Cc2c[nH]cn2)NC(=O)[C@H](CCCCN)NC(=O)[C@@H](Cc2c[nH]c3ccccc23)NC(=O)[C@H](Cc2c[nH]c3ccccc23)NC1=O) [compound 82]
[4]
  in vivo plasma HDL remodeling, level of lipid-poor pre-beta particles: able to remodel plasma HDL to increase the level of lipid-poor pre-beta particles
